Patent US11065232B2, “Dihydrotetrabenazine for the treatment of anxiety and psychoses” (ADEPTIO PHARMACEUTICALS LIMITED, priority 2017, dated 2021)

Legend:
[1] = biological target: T1, alpha 1A (h) (antagonist radioligand) (Homo sapiens, UniProt P35348); assay: Receptor protein binding studies, alpha 1A
T1 sequence (P35348 1-466): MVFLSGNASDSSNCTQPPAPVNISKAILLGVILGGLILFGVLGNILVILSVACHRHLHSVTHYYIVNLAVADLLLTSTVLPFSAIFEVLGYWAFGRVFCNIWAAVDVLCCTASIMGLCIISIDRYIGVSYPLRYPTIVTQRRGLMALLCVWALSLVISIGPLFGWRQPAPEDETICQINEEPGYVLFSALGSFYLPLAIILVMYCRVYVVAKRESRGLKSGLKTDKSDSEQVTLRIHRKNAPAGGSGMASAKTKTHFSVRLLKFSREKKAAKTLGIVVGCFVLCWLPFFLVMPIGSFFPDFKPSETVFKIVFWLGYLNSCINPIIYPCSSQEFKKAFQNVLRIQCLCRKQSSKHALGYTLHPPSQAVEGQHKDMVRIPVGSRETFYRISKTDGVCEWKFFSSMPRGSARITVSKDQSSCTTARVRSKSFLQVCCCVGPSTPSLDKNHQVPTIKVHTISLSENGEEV
Description: (§1) The four 3,11b trans-dihydrotetrabenazine isomers (+)-α, (−)-α, (+)-β and (−)-β were subjected to specific binding assays to test their ability to bind to the receptors and transporter proteins described below. The results are set out in Table 1

[2] = biological target: T2, alpha 2C (h) (antagonist radioligand) (Homo sapiens, UniProt P18825); assay: Receptor protein binding studies, alpha 2C
T2 sequence (P18825 1-462): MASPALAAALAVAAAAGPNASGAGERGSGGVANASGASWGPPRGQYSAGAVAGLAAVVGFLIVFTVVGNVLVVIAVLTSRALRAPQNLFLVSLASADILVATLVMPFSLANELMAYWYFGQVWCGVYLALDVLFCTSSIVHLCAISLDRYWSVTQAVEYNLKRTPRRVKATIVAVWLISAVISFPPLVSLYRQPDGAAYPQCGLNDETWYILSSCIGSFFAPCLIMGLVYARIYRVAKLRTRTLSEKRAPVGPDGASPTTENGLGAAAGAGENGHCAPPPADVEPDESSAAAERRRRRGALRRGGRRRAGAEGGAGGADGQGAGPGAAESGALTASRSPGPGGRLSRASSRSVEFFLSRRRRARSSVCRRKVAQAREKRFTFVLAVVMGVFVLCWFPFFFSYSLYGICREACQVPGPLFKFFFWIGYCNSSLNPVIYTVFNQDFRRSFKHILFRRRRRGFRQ
Description: as §1

[3] = biological target: D3 (h) (antagonist radioligand) (Homo sapiens, UniProt P35462); assay: Receptor protein binding studies, D3
D3 (h) (antagonist radioligand), sequence (P35462 whole entry): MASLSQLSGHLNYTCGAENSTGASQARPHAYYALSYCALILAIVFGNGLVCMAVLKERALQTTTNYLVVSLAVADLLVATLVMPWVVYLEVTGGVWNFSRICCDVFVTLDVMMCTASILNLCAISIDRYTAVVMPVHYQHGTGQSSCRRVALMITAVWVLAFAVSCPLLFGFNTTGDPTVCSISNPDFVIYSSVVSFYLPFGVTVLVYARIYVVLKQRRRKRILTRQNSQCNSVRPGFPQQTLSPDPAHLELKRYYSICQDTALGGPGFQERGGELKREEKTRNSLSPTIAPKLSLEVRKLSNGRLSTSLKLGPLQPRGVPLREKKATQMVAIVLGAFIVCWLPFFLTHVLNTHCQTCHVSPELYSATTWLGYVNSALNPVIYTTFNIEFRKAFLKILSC
Description: as §1

[4] = biological target: T3, D4.4 (h) (antagonist radioligand) (Homo sapiens, UniProt P21917); assay: Receptor protein binding studies, D4.4
T3 sequence (P21917 1-419): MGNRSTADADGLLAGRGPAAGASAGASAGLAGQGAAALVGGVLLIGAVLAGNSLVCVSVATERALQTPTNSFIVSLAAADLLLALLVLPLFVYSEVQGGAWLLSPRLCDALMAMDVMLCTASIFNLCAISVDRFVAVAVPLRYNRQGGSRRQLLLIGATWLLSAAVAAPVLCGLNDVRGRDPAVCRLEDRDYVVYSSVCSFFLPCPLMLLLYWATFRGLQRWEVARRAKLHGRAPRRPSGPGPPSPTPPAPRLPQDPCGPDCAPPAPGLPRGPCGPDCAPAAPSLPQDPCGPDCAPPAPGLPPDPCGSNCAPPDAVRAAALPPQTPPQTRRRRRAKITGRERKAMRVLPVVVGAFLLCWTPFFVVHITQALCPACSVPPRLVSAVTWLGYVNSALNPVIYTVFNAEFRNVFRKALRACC
Description: as §1

[5] = system: I2 (antagonist radioligand); assay: Receptor protein binding studies, I2
Description: as §1

[6] = biological target: mu (MOP) (h) (agonist radioligand) (Homo sapiens, UniProt P35372); assay: Receptor protein binding studies, mu (MOP)
mu (MOP) (h) (agonist radioligand), sequence (P35372 whole entry): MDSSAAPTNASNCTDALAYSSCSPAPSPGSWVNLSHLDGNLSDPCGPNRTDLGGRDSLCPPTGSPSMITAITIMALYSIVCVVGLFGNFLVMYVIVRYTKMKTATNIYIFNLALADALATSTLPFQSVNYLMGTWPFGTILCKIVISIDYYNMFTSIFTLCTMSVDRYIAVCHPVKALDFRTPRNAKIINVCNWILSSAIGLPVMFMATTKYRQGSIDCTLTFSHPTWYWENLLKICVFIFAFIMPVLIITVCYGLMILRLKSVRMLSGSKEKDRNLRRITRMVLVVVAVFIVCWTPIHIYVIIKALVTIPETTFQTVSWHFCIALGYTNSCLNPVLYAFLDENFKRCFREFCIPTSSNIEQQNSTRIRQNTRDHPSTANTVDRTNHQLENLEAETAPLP
Description: as §1

[7] = biological target: T4, 5-HT1A(h) (agonist radioligand) (Homo sapiens, UniProt P08908); assay: Receptor protein binding studies, 5-HT1A
T4 sequence (P08908 1-422): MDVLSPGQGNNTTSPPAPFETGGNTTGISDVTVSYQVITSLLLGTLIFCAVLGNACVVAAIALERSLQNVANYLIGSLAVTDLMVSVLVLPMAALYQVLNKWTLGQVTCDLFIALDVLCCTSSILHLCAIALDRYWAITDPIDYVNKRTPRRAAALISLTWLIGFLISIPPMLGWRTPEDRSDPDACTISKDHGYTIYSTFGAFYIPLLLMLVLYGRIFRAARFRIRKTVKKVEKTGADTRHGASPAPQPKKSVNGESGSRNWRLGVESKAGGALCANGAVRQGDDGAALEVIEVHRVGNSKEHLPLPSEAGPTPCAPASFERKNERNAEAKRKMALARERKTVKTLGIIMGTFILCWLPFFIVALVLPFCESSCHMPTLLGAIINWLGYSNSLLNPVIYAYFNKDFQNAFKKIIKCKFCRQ
Description: as §1

[8] = biological target: 5-HT2B (h) (agonist radioligand) (Homo sapiens, UniProt P41595); assay: Receptor protein binding studies, 5-HT2B
5-HT2B (h) (agonist radioligand), sequence (P41595 whole entry): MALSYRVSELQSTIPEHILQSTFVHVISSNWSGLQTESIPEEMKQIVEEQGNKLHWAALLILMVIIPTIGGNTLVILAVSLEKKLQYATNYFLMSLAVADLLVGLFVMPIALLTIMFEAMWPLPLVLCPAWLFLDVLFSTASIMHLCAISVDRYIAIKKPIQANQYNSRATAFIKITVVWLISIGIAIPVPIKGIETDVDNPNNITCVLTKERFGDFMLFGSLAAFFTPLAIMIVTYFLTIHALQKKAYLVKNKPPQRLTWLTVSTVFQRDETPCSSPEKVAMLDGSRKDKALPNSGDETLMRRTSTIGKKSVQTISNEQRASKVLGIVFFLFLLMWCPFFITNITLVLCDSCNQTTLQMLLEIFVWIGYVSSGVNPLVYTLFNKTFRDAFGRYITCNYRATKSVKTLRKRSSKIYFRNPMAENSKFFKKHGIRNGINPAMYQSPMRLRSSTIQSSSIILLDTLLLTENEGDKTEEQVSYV
Description: as §1

[9] = biological target: 5-HT4e (h) (antagonist radioligand) (Homo sapiens, UniProt Q13639); assay: Receptor protein binding studies, 5-HT4e
5-HT4e (h) (antagonist radioligand), sequence (Q13639 1-378 isoform Q13639-5): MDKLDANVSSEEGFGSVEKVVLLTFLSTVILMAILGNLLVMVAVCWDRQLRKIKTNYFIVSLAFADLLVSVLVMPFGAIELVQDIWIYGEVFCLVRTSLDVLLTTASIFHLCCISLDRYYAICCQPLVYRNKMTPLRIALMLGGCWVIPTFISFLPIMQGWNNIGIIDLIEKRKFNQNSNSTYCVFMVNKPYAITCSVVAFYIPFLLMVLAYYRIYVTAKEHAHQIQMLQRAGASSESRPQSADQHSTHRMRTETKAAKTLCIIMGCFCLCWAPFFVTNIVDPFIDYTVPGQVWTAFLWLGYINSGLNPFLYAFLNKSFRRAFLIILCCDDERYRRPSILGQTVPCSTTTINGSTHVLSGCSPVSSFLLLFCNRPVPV
Description: as §1

[10] = biological target: 5-HT5A(h) (Homo sapiens, UniProt P47898); assay: Receptor protein binding studies, 5-HT5A
5-HT5A(h), sequence (P47898 whole entry): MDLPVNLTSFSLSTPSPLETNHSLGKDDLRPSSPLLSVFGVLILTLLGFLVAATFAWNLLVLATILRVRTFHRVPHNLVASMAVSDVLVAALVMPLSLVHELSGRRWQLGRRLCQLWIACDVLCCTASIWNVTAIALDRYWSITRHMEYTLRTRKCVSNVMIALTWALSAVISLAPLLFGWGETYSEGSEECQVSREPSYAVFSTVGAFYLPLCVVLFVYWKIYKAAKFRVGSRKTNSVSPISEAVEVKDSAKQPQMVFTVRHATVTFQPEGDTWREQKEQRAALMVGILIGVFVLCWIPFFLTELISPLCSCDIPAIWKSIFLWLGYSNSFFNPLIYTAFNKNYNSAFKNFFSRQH
Description: as §1

[11] = biological target: 5-HT6 (h) (Homo sapiens, UniProt P50406); assay: Receptor protein binding studies, 5-HT6
5-HT6 (h), sequence (P50406 whole entry): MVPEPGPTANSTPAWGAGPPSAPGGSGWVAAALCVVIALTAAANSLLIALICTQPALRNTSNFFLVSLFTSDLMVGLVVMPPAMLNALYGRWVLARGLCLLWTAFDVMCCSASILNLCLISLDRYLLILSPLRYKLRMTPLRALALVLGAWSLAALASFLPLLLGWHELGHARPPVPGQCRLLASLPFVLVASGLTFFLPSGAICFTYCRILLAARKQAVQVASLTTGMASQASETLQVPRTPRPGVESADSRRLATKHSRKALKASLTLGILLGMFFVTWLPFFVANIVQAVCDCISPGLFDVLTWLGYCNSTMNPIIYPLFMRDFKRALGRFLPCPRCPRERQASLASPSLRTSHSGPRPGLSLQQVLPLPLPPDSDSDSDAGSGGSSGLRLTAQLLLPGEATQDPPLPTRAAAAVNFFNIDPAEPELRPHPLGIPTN
Description: as §1

[12] = biological target: Sigma 2 (h) (agonist radioligand) (Homo sapiens, UniProt Q5BJF2); assay: Receptor protein binding studies, Sigma 2
Sigma 2 (h) (agonist radioligand), sequence (Q5BJF2 whole entry): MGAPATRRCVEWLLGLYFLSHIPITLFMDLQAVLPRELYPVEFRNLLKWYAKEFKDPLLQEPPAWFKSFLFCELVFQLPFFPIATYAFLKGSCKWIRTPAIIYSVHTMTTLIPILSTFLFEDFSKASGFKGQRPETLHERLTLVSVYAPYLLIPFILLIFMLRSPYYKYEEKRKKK
Description: as §1

[13] = CONC 1.0E−05 (unit not given), 10 μM
[14] = CONC 1.0E−06 (unit not given), 1 μM

Row | Substance | % Inhibition of specific binding ([1]; CONC 1.0E−05 (unit not given)) [%] | % Inhibition of specific binding ([1]; CONC 1.0E−06 (unit not given)) [%] | % Inhibition of specific binding ([2]; CONC 1.0E−05 (unit not given)) [%] | % Inhibition of specific binding ([2]; CONC 1.0E−06 (unit not given)) [%] | % Inhibition of specific binding ([3]; CONC 1.0E−05 (unit not given)) [%] | % Inhibition of specific binding ([3]; CONC 1.0E−06 (unit not given)) [%] | activity at the dopamine D4 receptor (in words) [4] | % Inhibition of specific binding [4, 13] [%] | % Inhibition of specific binding [4, 14] [%] | % Inhibition of specific binding ([5]; CONC 1.0E−05 (unit not given)) [%] | % Inhibition of specific binding ([5]; CONC 1.0E−06 (unit not given)) [%] | % Inhibition of specific binding ([6]; CONC 1.0E−05 (unit not given)) [%] | % Inhibition of specific binding ([6]; CONC 1.0E−06 (unit not given)) [%] | % Inhibition of specific binding ([7]; CONC 1.0E−05 (unit not given)) [%] | % Inhibition of specific binding ([7]; CONC 1.0E−06 (unit not given)) [%] | % Inhibition of specific binding ([8]; CONC 1.0E−05 (unit not given)) [%] | % Inhibition of specific binding ([8]; CONC 1.0E−06 (unit not given)) [%] | % Inhibition of specific binding ([9]; CONC 1.0E−05 (unit not given)) [%] | % Inhibition of specific binding ([9]; CONC 1.0E−06 (unit not given)) [%] | % Inhibition of specific binding ([10]; CONC 1.0E−05 (unit not given)) [%] | other results
1 | (+)-β-dihydrotetrabenazine [(+)-Beta] | 33 | 2 | 12 | −7 | 12 | −18 | essentially inactive | 2 | −3 | 11 | 6 | 2 | 7 | 64 | 20 | −7 | −2 | 19 | −4 | −13 | % Inhibition of specific binding ([10]; CONC 1.0E−06 (unit not given)): −23%; % Inhibition of specific binding ([11]; CONC 1.0E−05 (unit not given)): 6%; % Inhibition of specific binding ([11]; CONC 1.0E−06 (unit not given)): 15%; % Inhibition of specific binding ([12]; CONC 1.0E−05 (unit not given)): 85%; % Inhibition of specific binding ([12]; CONC 1.0E−06 (unit not given)): 41%
2 | (−)-α-dihydrotetrabenazine [(−)-Alpha] | 6 | 1 | 69 | 17 | 79 | 26 | significantly less active | 65 | 19 | 12 | 13 | 2 | 11 | 96 | 80 | 92 | 55 | 26 | 4 | −6 | % Inhibition of specific binding ([10]; CONC 1.0E−06 (unit not given)): −24%; % Inhibition of specific binding ([11]; CONC 1.0E−05 (unit not given)): 29%; % Inhibition of specific binding ([11]; CONC 1.0E−06 (unit not given)): 6%; % Inhibition of specific binding ([12]; CONC 1.0E−05 (unit not given)): 85%; % Inhibition of specific binding ([12]; CONC 1.0E−06 (unit not given)): 52%
3 | (+)-α-dihydrotetrabenazine [(+)-Alpha] | 12 | 7 | 5 | 4 | 2 | −14 | essentially inactive | −7 | −3 | 20 | 1 | 5 | 0 | 83 | 38 | 0 | −4 | 40 | 2 | −2 | % Inhibition of specific binding ([10]; CONC 1.0E−06 (unit not given)): −26%; % Inhibition of specific binding ([11]; CONC 1.0E−05 (unit not given)): 35%; % Inhibition of specific binding ([11]; CONC 1.0E−06 (unit not given)): −1%; % Inhibition of specific binding ([12]; CONC 1.0E−05 (unit not given)): 70%; % Inhibition of specific binding ([12]; CONC 1.0E−06 (unit not given)): 34%
